Reference: ChEMBL document CHEMBL5625206, “Design, synthesis, and evaluation of novel pleuromutilin aryl acrylate derivatives as promising broad-spectrum antibiotics especially for combatting multi-drug resistant gram-negative bacteria” (Eur J Med Chem, 2023)
In brackets after ≈: the same amount, converted by molar mass. Activity calls are given as the source filed them. No cut-off for these calls is given here.

Tests used:
[1] = Toxicity in fasted male Sprague-Dawley rat assessed as relative liver weight ratio at 500 mg/kg, IG measured for 14 days (reference value: 3.616 +/- 0.286); format: organism-based; details: in vivo, po, 336 h, time 14 day
[2] = Half life in fasted Sprague-Dawley rat at 1 mg/kg, iv by LC-MS/MS analysis; format: ADME, organism-based; details: in vivo
[3] = Toxicity in fasted female Sprague-Dawley rat assessed as relative kidney weight ratio at 224 mg/kg, IG measured for 14 days (reference value: 0.802 +/- 0.031); format: organism-based; details: in vivo, po, 336 h, time 14 day
Escherichia coli [4] = test: Induction of extracellular electrical conductivity in Escherichia coli ATCC 25922 at MIC incubated for 6 hrs; format: functional, organism-based
[5] = Toxicity in fasted female Sprague-Dawley rat assessed as body weight at 100 mg/kg, IG measured after 14 days (reference value: 214.3 +/- 9.8 g); format: organism-based; details: in vivo, po, 336 h, time 14 day
[6] = Toxicity in fasted female Sprague-Dawley rat assessed as body weight at 331 mg/kg, IG measured after 7 days (reference value: 188.2 +/- 9.2 g); format: organism-based; details: in vivo, po, 168 h, time 7 day
[7] = Toxicity in fasted male Sprague-Dawley rat assessed as relative lung weight ratio at 100 mg/kg, IG measured for 14 days (reference value: 0.437 +/- 0.064); format: organism-based; details: in vivo, po, 336 h, time 14 day
Escherichia coli [8] = test: Induction of cell damage in Escherichia coli ATCC 25922 assessed as intracellular pH at MIC incubated for 30 mins by fluorescence based analysis (reference value: 6.05 +/- 0.10); format: functional; details: 0.5 h
[9] = test system: Mycoplasmoides gallisepticum; test: Anti-mycoplasma activity against Mycoplasma gallisepticum MG-R-NCTC10115 assessed as bacterial growth inhibition incubated for 7 days; format: functional; details: MG-R-NCTC10115, 168 h, time 7 day
Staphylococcus aureus [10] = test: Antibacterial activity against methicillin-resistant Staphylococcus aureus ATCC 33591 infected in neutropenic Kunming mouse model administered intraperitoneally measured after 7 days; format: functional; details: ATCC 33591, 168 h, route ip, time 7 day
Escherichia coli [11] = test: Induction of cell damage in Escherichia coli ATCC 25922 assessed as fold increase in extracellular ATP concentration at MIC incubated for 30 mins by fluorescence based analysis relative to control; format: functional; details: 0.5 h
[12] = Toxicity in fasted male Sprague-Dawley rat assessed as body weight at 148 mg/kg, IG measured after 14 days (reference value: 311.2 +/- 13.6 g); format: organism-based; details: in vivo, po, 336 h, time 14 day
[13] = Toxicity in fasted male Sprague-Dawley rat assessed as relative heart weight ratio at 331 mg/kg, IG measured for 14 days (reference value: 0.396 +/- 0.043); format: organism-based; details: in vivo, po, 336 h, time 14 day
[14] = Toxicity in neutropenic Kunming mouse model infected with methicillin-resistant Staphylococcus aureus ATCC 33591 assessed as survival rate at 20 mg/kg, ip measured after 7 days relative to control; format: organism-based; details: in vivo, 168 h, time 7 day
[15] = Toxicity in fasted male Sprague-Dawley rat assessed as body weight at 500 mg/kg, IG measured after 14 days (reference value: 311.2 +/- 13.6 g); format: organism-based; details: in vivo, po, 336 h, time 14 day
[16] = Toxicity in fasted female Sprague-Dawley rat assessed as relative lung weight ratio at 148 mg/kg, IG measured for 14 days (reference value: 0.534 +/- 0025); format: organism-based; details: in vivo, po, 336 h, time 14 day
[17] = Tmax in fasted Sprague-Dawley rat at 1 mg/kg, iv by LC-MS/MS analysis; format: ADME, organism-based; details: in vivo
Staphylococcus aureus [18] = test: Antibacterial activity against methicillin-resistant Staphylococcus aureus ATCC 33591 infected in neutropenic Kunming mouse model assessed as reduction in infection-induced liver damage at 20 mg/kg, ip measured after 7 days; format: functional, organism-based; details: time 7.0 day
Staphylococcus aureus [19] = test: Disruption of cell membrane integrity in methicillin-resistant Staphylococcus aureus ATCC 33591 at 4 times MIC incubated for 4 hrs by FESEM analysis; format: functional, organism-based
[20] = Toxicity in fasted male Sprague-Dawley rat assessed as relative spleen weight ratio at 224 mg/kg, IG measured for 14 days (reference value: 0.246 +/- 0.037); format: organism-based; details: in vivo, po, 336 h, time 14 day
Escherichia coli [21] = test: Disruption of cell membrane integrity in Escherichia coli ATCC 25922 assessed as increase in red fluorescence at 1 to 4 times MIC incubated for 2 hrs by MycoLight green JJ98/PI staining based analysis; format: functional, organism-based
[22] = Clearance in fasted Sprague-Dawley rat at 1 mg/kg, iv by LC-MS/MS analysis; format: ADME, organism-based; details: in vivo
[23] = Toxicity in fasted female Sprague-Dawley rat assessed as relative ovary weight ratio at 148 mg/kg, IG measured for 14 days (reference value: 0.061 +/- 0.010); format: organism-based; details: in vivo, po, 336 h, time 14 day
[24] = Toxicity in fasted female Sprague-Dawley rat assessed as relative liver weight ratio at 224 mg/kg, IG measured for 14 days (reference value: 3.199 +/- 0.062); format: organism-based; details: in vivo, po, 336 h, time 14 day
Staphylococcus aureus [25] = test: Antibacterial activity against methicillin-resistant Staphylococcus aureus ATCC 33591 infected in neutropenic Kunming mouse model assessed as reduction in infection-induced inflammatory cell infiltration in liver at 20 mg/kg, ip measured after 7 days; format: functional, organism-based; details: time 7.0 day
Escherichia coli [26] = test: Induction of extracellular electrical conductivity in Escherichia coli ATCC 25922 at 2 times MIC incubated for 8 hrs relative to control; format: functional
[27] = Toxicity in fasted male Sprague-Dawley rat assessed as relative kidney weight ratio at 331 mg/kg, IG measured for 14 days (reference value: 0.820 +/- 0.072); format: organism-based; details: in vivo, po, 336 h, time 14 day
[28] = Toxicity in fasted female Sprague-Dawley rat assessed as relative liver weight ratio at 331 mg/kg, IG measured for 14 days (reference value: 3.199 +/- 0.062); format: organism-based; details: in vivo, po, 336 h, time 14 day
[29] = Toxicity in fasted male Sprague-Dawley rat assessed as relative spleen weight ratio at 331 mg/kg, IG measured for 14 days (reference value: 0.246 +/- 0.037); format: organism-based; details: in vivo, po, 336 h, time 14 day
Staphylococcus aureus [30] = test: Inhibition of biofilm formation of methicillin-resistant Staphylococcus aureus ATCC 33591 incubated for 24 hrs by crystal violet staining based analysis; format: functional, organism-based
[31] = Toxicity in fasted male Sprague-Dawley rat assessed as relative liver weight ratio at 331 mg/kg, IG measured for 14 days (reference value: 3.616 +/- 0.286); format: organism-based; details: in vivo, po, 336 h, time 14 day
Staphylococcus aureus [32] = test: Antibacterial activity against methicillin-resistant Staphylococcus aureus ATCC 33591 infected in neutropenic Kunming mouse model assessed as restoration of infection- induced change in cell morphology in lung at 20 mg/kg, ip measured after 7 days; format: functional, organism-based; details: time 7.0 day
[33] = Toxicity in fasted female Sprague-Dawley rat assessed as body weight at 331 mg/kg, IG measured after 14 days (reference value: 214.3 +/- 9.8 g); format: organism-based; details: in vivo, po, 336 h, time 14 day
Escherichia coli [34] = test: Induction of cell damage in Escherichia coli ATCC 25922 assessed as decrease in intracellular ATP concentration at 2 times MIC incubated for 30 mins by fluorescence based analysis relative to control; format: functional; parameters: scale not given: the % may be the effect or the level left; details: 0.5 h
[35] = Toxicity in fasted female Sprague-Dawley rat assessed as relative kidney weight ratio at 100 mg/kg, IG measured for 14 days (reference value: 0.802 +/- 0.031); format: organism-based; details: in vivo, po, 336 h, time 14 day
Staphylococcus aureus [36] = test: Antibacterial activity against methicillin-resistant Staphylococcus aureus ATCC 33591 infected in neutropenic Kunming mouse model assessed as reduction in infection-induced inflammatory cell infiltration in lung at 20 mg/kg, ip measured after 7 days; format: functional, organism-based; details: time 7.0 day

`C=C[C@]1(C)C[C@@H](OC(=O)COC(=O)/C=C/c2ccc(N(C)C)cc2)[C@]2(C)[C@H](C)CC[C@]3(CCC(=O)[C@H]32)[C@@H](C)[C@@H]1O` showed a Ratio [1] of 3.551, a half-life [2] of 40.8 min and a Ratio [3] of 0.839. The Activity (Escherichia coli [4]) was “Active”, the Activity [5] was 214.6 g and the Activity [6] was 196.2 g. For the same compound, the Ratio [7] was 0.44, the pH (Escherichia coli [8]) was 4.34 and the MIC [9] was 4 ng/mL (≈ 7.25 nM). The ED50 (Staphylococcus aureus [10]) was 9.04 mg/kg, the “fold change (FC)” value (Escherichia coli [11]) was 6.12 and the Activity [12] was 303.6 g. For the same compound, the Ratio [13] was 0.374, the Survival [14] was 90% and the Activity [15] was 296.8 g. The Ratio [16] was 0.494, the Tmax [17] was 4.98 min and the Activity (Staphylococcus aureus [18]) was “Active”. The Activity (Staphylococcus aureus [19]) was “Active”, the Ratio [20] was 0.229 and the Activity (Escherichia coli [21]) was “Active”. For the same compound, the clearance [22] was 35 mL/min/kg, the Ratio [23] was 0.066 and the Ratio [24] was 3.197. For the same compound, the Activity (Staphylococcus aureus [25]) was “Active”, the Activity (Escherichia coli [26]) was 20.78% and the Ratio [27] was 0.831. The Ratio [28] was 3.171, the Ratio [29] was 0.235 and the inhibition (Staphylococcus aureus [30]) was “Dose-Dependent Effect”. For the same compound, the Ratio [31] was 3.528, the Activity (Staphylococcus aureus [32]) was “Active” and the Activity [33] was 218.7 g. The Activity (Escherichia coli [34]) was 67.87%, the Ratio [35] was 0.81 and the Activity (Staphylococcus aureus [36]) was “Active”.
